For the assay, the target named is B-Raf (V600E)-kinase (Homo sapiens (Human), UniProt P15056, V600E). In words: Kinase test B-RAF (V600E). The class given is biochemical. To be noted: B-RAF (V600E) kinase test, 250 μM ATP. As to the method:
Kinase Test B-RAF (V600E)
In a dilution series 10 μL of test substance solution are placed in a multiwell plate. The dilution series is selected so that generally a range of concentrations of 2 μM to 0.119 nM or 0.017 nM is covered. If necessary the initial concentration of 2 μM is changed to 50 μM, 10 μM or 0.4 μM or 0.2857 μM and further dilution is carried out accordingly. The final concentration of DMSO is 5%. 10 μL of the B-Raf (V600E)-kinase solution are pipetted in (containing 0.5 ng B-Raf (V600E)-kinase in 20 mM Tris-HCl pH 7.5, 0.1 mM EDTA, 0.1 mM EGTA, 0.286 mM sodium orthovanadate, 10% glycerol, 1 mg/mL bovine serum albumin, 1 mM dithiothreitol) and the mixture is incubated for 24 h at RT under with shaking. The kinase reaction is started by the addition of 20 μL ATP solution [final concentration: 250 μM ATP, 30 mM Tris-HCl pH 7.5, 0.02% Brij, 0.2 mM sodium orthovanadate, 10 mM magnesium acetate, 0.1 mM EGTA, phosphatase cocktail (Sigma, # P2850, dilution recommended by the manufacturer), 0.1 mM EGTA] and 10 μL MEK1 solution [containing 50 ng biotinylated MEK1 (prepared from purified MEK1 according to standard procedure, e.g. with EZ-Link Sulpho-NHS-LC-Biotin reagent, Pierce, #21335) and carried out for 60 min at RT with constant shaking. The reaction is stopped by the addition of 12 μL of a 100 mM EDTA solution and incubation is continued for a further 5 min. 55 μL of the reaction solution are transferred into a streptavidin-coated plate (e.g. Streptawell HighBond, Roche, #11989685001) and shaken gently for 1 h at RT, in order to bind biotinylated MEK1 to the plate. After elimination of the liquid the plate is washed five times with 200 μL of 1×PBS and 100 μL solution of primary antibody plus europium-labelled secondary antibody [Anti Phospho-MEK (Ser217/221), Cell Signaling, #9121 and Eu-N1 labeled goat-anti-rabbit antibody, Perkin Elmer, # AD0105], the primary antibody is diluted 1:2000 and the secondary antibody is diluted to 0.4-0.5 μg/mL in Delfia Assay Buffer (Perkin Elmer, #1244-111). After 1 h shaking at RT the solution is poured away and washed five times with 200 μL Delfia Wash Buffer (Perkin Elmer, #4010-0010/#1244-114). After the addition of 200 μL Enhancement Solution (Perkin Elmer, #4001-0010/#1244-105) the mixture is shaken for 10 min at RT and then measured in a Wallac Victor using the program “Delfia Time Resolved Fluorescence (Europium)”. IC50 values are obtained from these dosage-activity curves using a software program (GraphPadPrizm).

pIC50: −log10 of the molar value.

B-Raf (V600E)-kinase, sequence (P15056 whole entry V600E): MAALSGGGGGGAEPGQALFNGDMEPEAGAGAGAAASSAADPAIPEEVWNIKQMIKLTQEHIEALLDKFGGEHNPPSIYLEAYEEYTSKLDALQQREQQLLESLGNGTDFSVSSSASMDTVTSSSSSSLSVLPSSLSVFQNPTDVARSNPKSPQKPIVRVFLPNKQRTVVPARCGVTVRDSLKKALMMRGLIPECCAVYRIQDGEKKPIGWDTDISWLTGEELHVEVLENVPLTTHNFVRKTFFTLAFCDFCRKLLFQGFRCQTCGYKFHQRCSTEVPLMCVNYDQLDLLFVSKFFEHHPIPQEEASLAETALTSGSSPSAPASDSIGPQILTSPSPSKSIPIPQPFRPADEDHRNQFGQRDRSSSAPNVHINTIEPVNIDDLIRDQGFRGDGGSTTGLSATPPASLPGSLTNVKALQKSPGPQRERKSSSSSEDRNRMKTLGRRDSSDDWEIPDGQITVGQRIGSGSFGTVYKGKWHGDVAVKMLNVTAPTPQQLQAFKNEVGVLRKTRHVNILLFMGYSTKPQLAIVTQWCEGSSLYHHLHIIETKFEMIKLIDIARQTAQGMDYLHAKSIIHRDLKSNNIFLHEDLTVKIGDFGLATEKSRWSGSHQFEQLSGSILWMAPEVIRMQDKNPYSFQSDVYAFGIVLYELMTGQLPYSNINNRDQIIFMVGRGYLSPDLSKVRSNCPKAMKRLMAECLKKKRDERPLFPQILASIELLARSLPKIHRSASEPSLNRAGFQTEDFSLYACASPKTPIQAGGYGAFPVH

In general, pIC50 refers to −log10 of the IC50, conventionally taken in molar units. Read a low pIC50 as a high IC50. The compound `COc1ccc(NC(=O)c2ccc(C)c(Nc3ncnc4c(N)nc(N5CCN(C)CC5)nc34)c2)cc1C(F)(F)F` [I-1] showed a negative-log IC50 (pIC50) of 7.59.
Regarding `Cc1ccc(C(=O)Nc2cc(Br)cc(C(F)(F)F)c2)cc1Nc1ncnc2c(N)nc(N3CCN(C)CC3)nc12` [I-2], the pIC50 was 8.05.
Take `Cc1ccc(C(=O)Nc2ccc(C(F)(F)F)cc2)cc1Nc1ncnc2c(N)nc(N3CCCN(C)CC3)nc12` [I-3]: the pIC50 was 8.05.
On to `Cc1ccc(C(=O)Nc2ccc(C(F)(F)F)cc2)cc1Nc1ncnc2c(N)nc(N3CCNCC3)nc12` [I-4], for which the negative logarithm of the IC50 (pIC50) was 8.15.
On to `Cc1ccc(C(=O)Nc2ccc(C(F)(F)F)cc2)cc1Nc1ncnc2c(N)nc(N3CCN(C)CC3)nc12` [I-5], for which the pIC50 was 8.30.
Consider `Cc1ccc(C(=O)Nc2ccc(C(F)(F)F)cc2)cc1Nc1ncnc2c(N)nc(NCCN(C)C)nc12` [I-6], for which the pIC50 was 7.17. This pIC50 lies 1.13 log units lower than the previous one.
In turn, `Cc1ccc(C(=O)Nc2ccc(C(F)(F)F)cc2)cc1Nc1ncnc2c(N)nc(N3CCN(C4CCN(C)CC4)CC3)nc12` [I-7] gave a negative-log IC50 (pIC50) of 8.52.
`Cc1ccc(C(=O)Nc2ccc(C(F)(F)F)cc2)cc1Nc1ncnc2c(N)nc(N3CCN(CC4CCN(C)CC4)CC3)nc12` [I-8] showed a pIC50 of 8.70. The pIC50 values of the last two compounds are within 0.2 log units of each other.
As for `Cc1ccc(C(=O)Nc2cc(C(C)(C)C)on2)cc1Nc1ncnc2c(N)nc(N3CCN(C)CC3)nc12` [I-9], the pIC50 is 8.52.
`Cc1ccc(C(=O)Nc2cc(C(C)(C)C)on2)cc1Nc1ncnc2c(N)nc(N3CCN(C4CCN(C)CC4)CC3)nc12` [I-10] had a negative-log IC50 (pIC50) of 9.00.
`Cc1ccc(C(=O)Nc2cc(C(C)(C)C)on2)cc1Nc1ncnc2c(N)nc(N3CCCN(C)CC3)nc12` [I-11] had a pIC50 of 9.00.
`Cc1ccc(C(=O)Nc2cc(C(C)(C)C)n[nH]2)cc1Nc1ncnc2c(N)nc(N3CCN(C4CCN(C)CC4)CC3)nc12` [I-12] showed a pIC50 of 8.70. This pIC50 is 0.30 log units lower than that of the compound before.
In the case of `Cc1ccc(C(=O)Nc2cc(C(C)(C)C)n[nH]2)cc1Nc1ncnc2c(N)nc(N3CCN(CC4CCN(C)CC4)CC3)nc12` [I-13], the negative logarithm of the IC50 (pIC50) is 8.40.
Regarding `Cc1ccc(C(=O)Nc2cc(C(C)(C)C)n[nH]2)cc1Nc1ncnc2c(N)nc(N3CCCN(C)CC3)nc12` [I-14], the pIC50 is 8.52. This pIC50 and that of the compound before are within 0.2 log units of each other.
The compound `COc1ccc(NC(=O)c2ccc(C)c(Nc3ncnc4c(N)nc(N5CCN(C6CCN(C)CC6)CC5)nc34)c2)cc1C(F)(F)F` [I-15] showed a pIC50 of 9.00.
With `COc1ccc(NC(=O)c2ccc(C)c(Nc3ncnc4c(N)nc(N5CCN(CC6CCN(C)CC6)CC5)nc34)c2)cc1C(F)(F)F` [I-16], the pIC50 was 9.00.
On to `COc1ccc(NC(=O)c2ccc(C)c(Nc3ncnc4c(N)nc(N5CCCN(C)CC5)nc34)c2)cc1C(F)(F)F` [I-17], for which the pIC50 is 9.00.
Turning to `Cc1ccc(C(=O)Nc2cc(C(C)(C)C)n[nH]2)cc1Nc1ncnc2c(N)nc(N3CCN(C)CC3)nc12` [I-18], the pIC50 is 8.52.
As for `CN1CCN(c2nc(N)c3ncnc(Nc4cccc(C(=O)Nc5cccc(C(F)(F)F)c5)c4)c3n2)CC1` [I-19], the pIC50 was 7.24.
`CN1CCCN(c2nc(N)c3ncnc(Nc4cccc(C(=O)Nc5cccc(C(F)(F)F)c5)c4)c3n2)CC1` [I-20] had a pIC50 of 7.30.
The compound `CN1CCC(N2CCN(c3nc(N)c4ncnc(Nc5cccc(C(=O)Nc6cccc(C(F)(F)F)c6)c5)c4n3)CC2)CC1` [I-21] had a negative-log IC50 (pIC50) of 7.66.
As to `CN1CCC(CN2CCN(c3nc(N)c4ncnc(Nc5cccc(C(=O)Nc6cccc(C(F)(F)F)c6)c5)c4n3)CC2)CC1` [I-22], the pIC50 was 7.89.
Consider `CN1CCN(c2nc(N)c3ncnc(Nc4cc(C(=O)Nc5cccc(C(F)(F)F)c5)ccc4Cl)c3n2)CC1` [I-23], for which the negative-log IC50 (pIC50) is 7.85.
With `CN1CCCN(c2nc(N)c3ncnc(Nc4cc(C(=O)Nc5cccc(C(F)(F)F)c5)ccc4Cl)c3n2)CC1` [I-24], the pIC50 is 8.05.
For the compound `CN1CCC(N2CCN(c3nc(N)c4ncnc(Nc5cc(C(=O)Nc6cccc(C(F)(F)F)c6)ccc5Cl)c4n3)CC2)CC1` [I-25], the pIC50 is 8.52. This pIC50 is 0.47 log units higher than that of the compound before.
As to `CN1CCN(c2nc(N)c3ncnc(Nc4cc(C(=O)Nc5cccc(C(F)(F)F)c5)ccc4Br)c3n2)CC1` [I-26], the pIC50 is 7.15.
`CN1CCCN(c2nc(N)c3ncnc(Nc4cc(C(=O)Nc5cccc(C(F)(F)F)c5)ccc4Br)c3n2)CC1` [I-27] showed a pIC50 of 7.08.
The compound `CN1CCC(N2CCN(c3nc(N)c4ncnc(Nc5cc(C(=O)Nc6cccc(C(F)(F)F)c6)ccc5Br)c4n3)CC2)CC1` [I-28] had a negative-log IC50 (pIC50) of 7.89. This pIC50 lies 0.81 log units higher than the previous one.
The compound `CN1CCC(CN2CCN(c3nc(N)c4ncnc(Nc5cc(C(=O)Nc6cccc(C(F)(F)F)c6)ccc5Br)c4n3)CC2)CC1` [I-29] gave a pIC50 of 7.82.
Take `COc1ccc(C(=O)Nc2cccc(C(F)(F)F)c2)cc1Nc1ncnc2c(N)nc(N3CCN(C)CC3)nc12` [I-30]: the pIC50 is 7.46. Against the preceding compound, the pIC50 is 0.36 log units lower.
Under `COc1ccc(C(=O)Nc2cccc(C(F)(F)F)c2)cc1Nc1ncnc2c(N)nc(N3CCCN(C)CC3)nc12` [I-31] stands 7.24.
`COc1ccc(C(=O)Nc2cccc(C(F)(F)F)c2)cc1Nc1ncnc2c(N)nc(N3CCN(C4CCN(C)CC4)CC3)nc12` [I-32] gave a pIC50 of 7.85.
With `COc1ccc(C(=O)Nc2cccc(C(F)(F)F)c2)cc1Nc1ncnc2c(N)nc(N3CCN(CC4CCN(C)CC4)CC3)nc12` [I-33], the pIC50 was 7.92.
`Cc1ccc(C(=O)Nc2cc(C(C)(C)C)n[nH]2)cc1Nc1ncnc2c(N)nc(N3CCN4CCCC4C3)nc12` (centres unmarked) [I-34]: the pIC50 is 8.70.
In turn, `Cc1ccc(C(=O)Nc2cc(C(C)(C)C)n[nH]2)cc1Nc1ncnc2c(N)nc(N3C[C@@H](C)N[C@@H](C)C3)nc12` [I-35] gave a pIC50 of 8.70.
Compound `Cc1ccc(C(=O)Nc2cc(C(C)(C)C)n[nH]2)cc1Nc1ncnc2c(N)nc(N3C[C@H]4C[C@@H]3CN4C)nc12` [I-36] had a pIC50 of 8.40.
`Cc1ccc(C(=O)Nc2cc(C(C)(C)C)n[nH]2)cc1Nc1ncnc2c(N)nc(N3CCN(CC(C)C)CC3)nc12` [I-37] showed a pIC50 of 8.40.
Regarding `Cc1ccc(C(=O)Nc2cc(C(C)(C)C)n[nH]2)cc1Nc1ncnc2c(N)nc(N3CCN(CC4CCCO4)CC3)nc12` (centres unmarked) [I-38], the pIC50 is 8.22. The pIC50 values of the last two compounds are within 0.2 log units of each other.
In the case of `Cc1ccc(C(=O)Nc2cc(C(C)(C)C)n[nH]2)cc1Nc1ncnc2c(N)nc(N3CCN(C4CCCC4)CC3)nc12` [I-39], the pIC50 is 8.30. This pIC50 and that of the compound before are within 0.2 log units of each other.
For the compound `Cc1ccc(C(=O)Nc2cc(C(C)(C)C)n[nH]2)cc1Nc1ncnc2c(N)nc(N3CCN(CC4CCCN(C)C4)CC3)nc12` (centres unmarked) [I-40], the pIC50 is 8.52.
Take `COCCN1CCN(c2nc(N)c3ncnc(Nc4cc(C(=O)Nc5cc(C(C)(C)C)n[nH]5)ccc4C)c3n2)CC1` [I-41]: the pIC50 is 8.30.
As to `Cc1ccc(C(=O)Nc2cc(C(C)(C)C)n[nH]2)cc1Nc1ncnc2c(N)nc(N3CCN(C4CC4)CC3)nc12` [I-42], the negative-log IC50 (pIC50) is 8.05.
Turning to `Cc1ccc(C(=O)Nc2cc(C(C)(C)C)n[nH]2)cc1Nc1ncnc2c(N)nc(N3CCN4CCCCC4C3)nc12` (centres unmarked) [I-43], the pIC50 was 8.40.
The compound `Cc1ccc(C(=O)Nc2cc(C(C)(C)C)n[nH]2)cc1Nc1ncnc2c(N)nc(N3CCC(N4CCN(C)CC4)CC3)nc12` [I-52] showed a pIC50 of 7.26. Compared with the last compound, the pIC50 is 1.14 log units lower.
Compound `COc1ccc(C(C)(C)C)cc1NC(=O)c1ccc(C)c(Nc2ncnc3c(N)nc(N4CCN(C)CC4)nc23)c1` [I-53] showed a pIC50 of 7.68.
Under `COc1cc(NC(=O)c2ccc(C)c(Nc3ncnc4c(N)nc(N5CCN(C)CC5)nc34)c2)cc(C(F)(F)F)c1` [I-54] stands 8.30; under `Cc1ccc(C(=O)Nc2cccc(C(F)(F)F)c2)cc1Nc1ncnc2c(N)nc(N3CCN(C)CC3)nc12` [I-55], over 9.00.
Compound `Cc1ccc(C(=O)Nc2cccc(C(F)(F)F)c2)cc1Nc1ncnc2c(N)nc(N3CCN(C4CCN(C)CC4)CC3)nc12` [I-56] had a negative logarithm of the IC50 (pIC50) of over 9.00.
For the compound `Cc1ccc(C(=O)Nc2cccc(C(F)(F)F)c2)cc1Nc1ncnc2c(N)nc(N3CCN(C4CCCC4)CC3)nc12` [I-57], the pIC50 was over 9.00.
On to `Cc1ccc(C(=O)Nc2cccc(C(F)(F)F)c2)cc1Nc1ncnc2c(N)nc(N3CCCN(C4CC4)CC3)nc12` [I-58], for which the pIC50 is 9.00.
With `Cc1ccc(C(=O)Nc2cccc(C(F)(F)F)c2)cc1Nc1ncnc2c(N)nc(N3CCCNCC3)nc12` [I-59], the pIC50 is 9.00.
The compound `Cc1ccc(C(=O)Nc2cccc(C(F)(F)F)c2)cc1Nc1ncnc2c(N)nc(N3CCCN(c4ccncc4)CC3)nc12` [I-60] gave a pIC50 of over 9.00.
In turn, `Cc1ccc(C(=O)Nc2cccc(C(F)(F)F)c2)cc1Nc1ncnc2c(N)nc(N3CCN(CC4CCN(C)CC4)CC3)nc12` [I-61] had a negative logarithm of the IC50 (pIC50) of over 9.00.

These data come from patent publication US8653087B2, “Pyrido [5, 4-D] pyrimidines as cell proliferation inhibitors” (Boehringer Ingelheim International GmbH, priority 2008, dated 2014).
